For three compounds, Activity, EC50 and IC50 results are on record in ChEMBL document CHEMBL1154556, “Siamenol, a new carbazole alkaloid from Murraya siamensis” (J Nat Prod, 2000).

The subject of test [1] is Human immunodeficiency virus. Put plainly: Antiviral activity against HIV. The test is classed as functional, organism-based.
In test [2] the test system is Human immunodeficiency virus. Put plainly: Antiviral activity against HIV assessed as protection against viral infection by XTT-tetrazolium method. The class given is functional.

Each structure is given as a SMILES string. Converted amounts (≈) assume the structure as drawn. The source made the active and inactive calls. The rule behind the calls is not given here.

In the case of `CC(C)=CCCC1(C)C=Cc2c(c(C)cc3c2[nH]c2ccccc23)O1` (stereo not given), the outcome in test [1] was inactive. By EC50 is commonly meant the concentration giving half of the maximal effect. In general, IC50 refers to the point on the concentration scale where inhibition reaches its midpoint. Read a high IC50 as weaker potency in that assay. In test [1] (Human immunodeficiency virus 1), `CC(C)=CCC/C(C)=C/Cc1c(O)c(C)cc2c1[nH]c1ccccc12` [MAHANIMBILOL] returned a half-maximal effective concentration (EC50) of 8.6 µg/mL (≈ 25.8 µM) and an IC50 of 23 µg/mL (≈ 69 µM). Consider `CC(C)=CCc1cc2c(cc1O)[nH]c1ccc(C)cc12` [SIAMENOL], for which the Activity in test [2] is on record as 50%. This compound showed an EC50 in test [1] (Human immunodeficiency virus 1) of 2.6 µg/mL (≈ 9.8 µM).
